Data from patent US20110124614A1, “Methods And Compositions For The Treatment of Autoimmune Disorders” (priority 2008, published 2011).
Several values for one entry are separate records, joined by “and”; a condition that tells them apart may be missing. Equal entries are not always repeated.

Key:
[1] = test system: EAE in heterozygous (GPR30^+/−) female mice; conditions: mouse, in vivo
[2] = test system: PD-1 expression in CD4^+FoxP3^+ or CD4^+FoxP3^− T cells; experiment: PD-1 expression in CD4+FoxP3+/FoxP3- T cells by flow cytometry, E2-treated WT vs knockout mice (Example V); assay type: in vivo, mouse
Procedure: Age matched WT C57BL/6 from the animal service at National Cancer Institute (Frederick, Md.), GPR30KO prepared as in Example 1, or PDD-KO mice (Dr. […] Splenocytes or lymph node cells from GPR30KO mice were obtained at the end of the clinical experiment in FIG. 1A and stained for FoxP3 and PD-1, as well as cellular markers for T cells and antigen presenting cells (APC). For membrane staining, 1 million cells were stained at 4° C. in the dark with appropriate Ab dilutions in staining buffer (PBS containing 0.5% BSA and 0.02% sodium azide), Intracellular staining for FoxP3 was performed following the protocol recommended by eBioscience (San Diego, Calif.). Briefly, 4 million cells were surface stained following standard procedures. After washing, the cells were fixed overnight and washed twice with 0.5 ml of permeabilization buffer. […] Flow cytometry data were collected on LSRII and FACSCalibur flow cytometers (BD Bioscience, Franklin Lakes, N.J.), and analyzed using FlowJo software (Tree Star, Ashland, Oreg.). […] The expression levels of PD-1 were analyzed by gating on CD4^+FoxP3^+ or CD4^+FoxP3^− T cells from WT or GPR30 mice. The bar charts in FIG. 5A show the average mean fluorescence intensity (MFI) of Pd-1 in CD4^+FoxP3^+ or CD4^+FoxP3^− from all mice in each group. […]

C[C@]12CC[C@@H]3c4ccc(O)cc4CC[C@H]3[C@@H]1CC[C@@H]2O [E2, 17β estradiol]
Daily [1]: 2.6 ± 0.8 | Incidence [1]: 4/7 and 5/10 | Mortality [1]: 0/7 and 0/10 | Onset [1]: 20.0 ± 1.0 | clinical EAE (in words) [1]: delayed onset and were only partially protected from EAE | PD-1 expression in non-regulatory CD4^+FoxP3^− T cells ([2]; WT or PD-1KO mice (so in the source)): did not induce a significant shift | E2 induced upregulation of PD-1 expression in CD4+FoxP3+ cells ([2]; splenocytes from PD-1KO mice (so in the source), FIG. 5A): abolished
